Series [1] has as its system mouse 4T1 breast cancer orthotopic tumor. As to the kind of experiment: In vivo anti-tumor activity, intratumoral injection, 4T1 orthotopic model. Particulars: for tumor suppression rate: BALB/c mice, CPT 1 mg/kg or CN 2.4 mg/kg intratumoral, NLG 500 ug/mouse gavage.
Series [2] shares this test system. As to the kind of experiment: Anti-tumor activity of CN@PHF, tail vein, 4T1 orthotopic model. The class given is in vivo. Particulars: CN 2.4 mg/kg, days 1, 4, 7, 10. The source says: The anti-tumor activity of CN@PHF in the mouse 4T1 breast cancer orthotopic tumor model was investigated and the specific steps were proceeded as follows:
At the age of 6 weeks, 20 g female BALB/c mice were inoculated with 5×10^5 cells of mouse breast cancer 4T1 cell suspension into the fourth pair of left breast pads on the abdomen of female BALB/c mice to establish a mouse model of 4T1 tumor in situ. When the tumor volume in situ was about 100 mm^3, the mice were randomly divided into 5 groups, 10 mice in each group, and were injected with normal saline, CN, Taxol, Irinotecan, CN@PHF through the tail vein. The dose of CN was 2.4 mg/kg, and the concentrations of Taxol and Irinotecan were the same as the molar concentration of CN. The administration time on the first day was recorded as the first day, and then the above-mentioned doses were administered on the 4th, 7th, and 10th days. From the 1st day, the mouse body weight and tumor volume were measured every other day, and the tumor volume-time curve was drawn. The mice were sacrificed on the 19th day, the tumor in situ was removed, weighed, and photographed. Tumors were stained with HE and TUNEL to study tumor cell apoptosis and stained with Ki67 to study tumor cell proliferation.

Series [3] has the same test system. Kind of series: Effect on antitumor immune response (DC maturation, Treg) in 4T1 tumor mice. The class given is in vivo. Particulars: for regulatory T cells (Treg) in tumors: flow cytometry CD3, CD4, CD25, FoxP3. The source says:
The effect of the compound CN on antitumor immune response is studied, the specific steps were proceeded as follows. The tumor and adjacent lymph nodes of the mice in Example 4 were stripped. […] The adjacent lymph nodes were squeezed through a 200-mesh screen to prepare a single cell suspension, and the maturation of lymph node dendritic cells (DC cells, CD11c, CD80, CD86) was studied with antibodies.
Background: Flow cytometry measures light scatter and fluorescence of single cells or particles in a stream.

For series [4], the system named is cancer stem cells. Kind of series: Effect on cancer stem cells (cell cycle, 3D tumor spheroids) from treated 4T1 tumors. Type of series: in vivo, mouse. The note with it: for G1-S cell cycle / dormancy of cancer stem cells: CD133, EdU, hoechst33342 flow cytometry. On the procedure: The effect of the compound CN on cancer stem cells is studied, the specific steps were proceeded as follows. In the single cell suspension prepared in Example 6, the cell cycle (CD133, EdU, hoechst33342) of cancer stem cells was stained with antibodies, and the dormancy of the cancer stem cells was analyzed by flow cytometry. […] Fibrinogen was diluted to 20 mg/mL with T7 buffer (pH 7.4, 50 mM Tris, 150 mM NaCl), and then mixed with the above cell suspension in equal volume. 1 μL of thrombin (0.1 U/μL) was added to the 96-well plate in advance, and 50 μL of the mixed cell suspension was added. […] On the seventh day, the cell pellets in the 96-well plate were photographed and counted. The particle size of tumor cell spheroids was measured, and the number of tumor cell spheroids was counted to characterize the stemness and tumor-forming ability of tumor cells.

Series [5] has as its target T1, IDO (Homo sapiens, UniProt P14902).
T1 construct: endogenous in cells; host or cells: HeLa cells stimulated with human IFN-γ
As to the kind of experiment: In vitro IDO inhibitory activity in IFN-γ-stimulated Hela cells. The class given is cell-based. The protocol: The inhibitory activity of the compound CN on IDO in vitro was investigated.
Hela cells were plated with a 96-well plate at 4,000 cells/well in DMEM complete medium containing 80 ng/ml of human IFN-γ, and incubated with a series of DMEM medium containing CN or NLG at a concentration of 0 μM, 0.1 μM, 1 μM, 10 μM, and 100 μM for 24 hours after 12 hours. 150 ul culture medium was aspirated, 75 ul trichloroacetic acid aqueous solution (30% w/v) was added, incubated at 50° C. for 30 min, and centrifuged at 3000 rpm for 10 minutes. 100 ul of the supernatant was collected, 100 ul of p-dimethylaminobenzaldehyde glacial acetic acid solution (2%, w/v) was added, placed at room temperature for 10 minutes, and the absorption was detected at 492 nm.

Series [6] has as its system 4T1 (breast cancer) cells. Kind of series: In vitro induction of immunogenic cell death. Type of series: cell-based, mouse. Particulars: 4T1 cells, 10 μM, 48 hours. On the procedure: The in vitro activity of the compound CN in inducing immunogenic cell death was evaluated.
4T1 (breast cancer) cells were seeded into a 6-well plate at a density of 1×10^5 cells per well and cultured overnight. The cells were treated with PBS, CPT (camptothecin), NLG (IDO inhibitor), CPT+NLG, CN (all drug concentrations were 10 μM) for 48 hours. The supernatant was collected and cultured to detect the release of ATP and HMGB-1. The cells were trypsinized, then incubated with CRT antibody on ice for 30 minutes in the dark, and analyzed by flow cytometry. In addition, CRT eversion was also studied by immunofluorescence imaging. 4T1 cells were seeded into a confocal culture dish at a density of 1×10^5 cells per well and cultured overnight. The cells were treated with PBS, CPT (camptothecin), NLG (IDO inhibitor), CPT+NLG, CN (all drug concentrations were 10 μM) for 48 hours. The cells were washed twice with PBS and incubated with CRT antibody for 30 minutes. Washing was performed twice with PBS, and fixing was then performed with 4% paraformaldehyde. After washing was performed twice with PBS again, the nucleus was stained with DAPI for 30 minutes. After washing was performed twice, the cells were imaged with a confocal microscope.

The nature of series [7]: Reduction responsiveness in GSH solution, by mass spectrometry. The class given is physicochemical. The note with it: 100 mM GSH aqueous solution, stirred 12 hours. The protocol: Study on the reduction responsiveness of compounds was performed as follows.
A small amount of the compound CN was added to 100 mM GSH aqueous solution and stirred for 12 hours.

For series [8], the system named is mouse 4T1 breast cancer orthotopic tumor. Kind of series: Influence on the cancer stem cell niche, 4T1 orthotopic model. The class given is in vivo. The note with it: tail vein, day 13, CD133, EdU, hoechst33342.
Experimental: At the age of 6 weeks, 20 g female BALB/c mice were inoculated with 5×10^5 cells of mouse breast cancer 4T1 cell suspension into the fourth pair of left breast pads on the abdomen of female BALB/c mice to establish a mouse model of 4T1 tumor in situ. […] The administration time on the first day was recorded as the first day, and then the above-mentioned doses were administered on the 4th, 7th, and 10th days. On the 13th day, 50 μL of Edu (8 mg/ml) was injected into the tumor. Three hours later, the mice were sacrificed, the tumor in situ was stripped and divided into two parts. […] Flow cytometric analysis of the cell cycle (CD133, EdU, hoechst33342) of cancer stem cells was carried out to investigate the effect of drugs on the dormancy of cancer stem cells.

T1 sequence (P14902 whole entry): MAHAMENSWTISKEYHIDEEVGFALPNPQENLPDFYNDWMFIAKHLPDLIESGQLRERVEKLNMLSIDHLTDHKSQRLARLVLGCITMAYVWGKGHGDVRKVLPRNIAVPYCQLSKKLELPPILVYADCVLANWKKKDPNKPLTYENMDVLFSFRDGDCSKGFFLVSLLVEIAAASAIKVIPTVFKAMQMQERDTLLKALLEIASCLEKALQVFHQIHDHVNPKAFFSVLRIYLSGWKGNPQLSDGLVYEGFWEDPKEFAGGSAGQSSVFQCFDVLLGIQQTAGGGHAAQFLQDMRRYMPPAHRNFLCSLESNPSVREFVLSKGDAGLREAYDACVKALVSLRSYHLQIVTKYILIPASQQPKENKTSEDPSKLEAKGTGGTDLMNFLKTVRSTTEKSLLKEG

For orientation: IC50 means the concentration that inhibits the measured activity by half. A lower IC50 goes with greater potency. A word on the inhibition: it is the relative decrease from the control value, in per cent. In the case of `CC[C@@]1(OC(=O)OCSSCOC(=O)OC(CC2c3ccccc3-c3cncn32)C2CCCCC2)C(=O)OCc2c1cc1n(c2=O)Cc2cc3ccccc3nc2-1` (stereo partly drawn) [CN], in series [1] (days 1, 4, 7, 10), the tumor suppression rate worked out at 85%. Moreover, the tumor volume entry in series [1] (intratumoral injection, 2.4 mg/kg, days 1, 4, 7, 10) was “significantly smaller than that of the other groups”. For the same compound, the tumor elimination entry in series [1] (intratumoral injection, 8 mice per group, day 15) is given as “one tumor was completely eliminated”. Also, the “weight of the tumor” value in series [1] (intratumoral injection, sacrificed day 15) was “significantly lower than that of the other groups”. In addition, the tumor volume result in series [2] is “significantly smaller than the normal saline group and the positive drugs Taxol and Irinotecan groups”. In addition, in series [3], the “regulatory T cells (Treg) in tumors” value was “reverse the increase in Treg caused by CPT”. Moreover, the “DC maturation in lymph nodes adjacent to tumors” value in series [3] (flow cytometry CD11c, CD80, CD86) was “increased significantly”. Further, the “proportion of mature DC relative to CPT group” value in series [3] (lymph nodes adjacent to tumors) is recorded as “about twice that of CPT group”. Also, the “G1-S cell cycle / dormancy of cancer stem cells” value in series [4] is recorded as “significantly reduce the G1/S ratio”. The “number and particle size of 3D spheres of tumor cells” value in series [4] (fibrin gel culture, seventh day) is “significantly lower than those in the other groups”. The compound further yielded an IC50 in series [5] of roughly 80 nM. In series [5] (HeLa, read-out: IDO inhibition rate), the inhibition at 1 µM was roughly 100%. Moreover, in series [6], the “ATP release relative to CPT and CPT+NLG groups” value was 2-3 times; the “CRT eversion, confocal imaging” value is recorded as “more CRT eversion”; the “ability to induce CRT eversion relative to CPT group, flow cytometry” value is “about 1.5 times”; the “ability to induce HMGB-1” value was “significantly stronger than that of the other groups”. In addition, the “reduction responsiveness (degradation products)” value in series [7] was “degraded to the original camptothecin and NLG919”.
`CC[C@@]1(O)C(=O)OCc2c1cc1n(c2=O)Cc2cc3ccccc3nc2-1` [CPT, camptothecin] came in with a tumor suppression rate in series [1] (days 1, 4, 7, 10) of 61.9%. In addition, the “regulatory T cells (Treg) in tumors” value in series [3] is on record as “significant increase in Treg”. Moreover, the “G1-S cell cycle / dormancy of cancer stem cells” value in series [4] is reported as “block the G1-S cell cycle of cancer stem cells”.
Consider `CCc1c2c(nc3ccc(OC(=O)N4CCC(N5CCCCC5)CC4)cc13)-c1cc3c(c(=O)n1C2)COC(=O)[C@]3(O)CC` [Irinotecan], for which the “dormancy / cycle inhibition of cancer stem cells” value in series [8] is “increase the dormancy of cancer stem cells”.
